Results taken from PMC10384011, “m-Terphenylamines, Acting as Selective COX-1 Inhibitors, Block Microglia Inflammatory Response and Exert Neuroprotective Activity” (Molecules, 2023).

What was measured:
[1] = molecular target: T1, human COX-2 (Homo sapiens, UniProt P35354); assay: Cyclooxygenase colorimetric inhibitor screening assay, COX-2; type: biochemical; conditions: human COX-2, colorimetric kit; read-out: hCOX-2; IC50;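 note: peroxidase activity of COX-2 followed colorimetrically through formation of oxidized TMPD at 590 nm, with arachidonic acid as substrate, compounds tested from 0.001 to 50 µM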
T1 construct: purchased Cayman Chemicals 701050
T1 sequence (P35354 18-604): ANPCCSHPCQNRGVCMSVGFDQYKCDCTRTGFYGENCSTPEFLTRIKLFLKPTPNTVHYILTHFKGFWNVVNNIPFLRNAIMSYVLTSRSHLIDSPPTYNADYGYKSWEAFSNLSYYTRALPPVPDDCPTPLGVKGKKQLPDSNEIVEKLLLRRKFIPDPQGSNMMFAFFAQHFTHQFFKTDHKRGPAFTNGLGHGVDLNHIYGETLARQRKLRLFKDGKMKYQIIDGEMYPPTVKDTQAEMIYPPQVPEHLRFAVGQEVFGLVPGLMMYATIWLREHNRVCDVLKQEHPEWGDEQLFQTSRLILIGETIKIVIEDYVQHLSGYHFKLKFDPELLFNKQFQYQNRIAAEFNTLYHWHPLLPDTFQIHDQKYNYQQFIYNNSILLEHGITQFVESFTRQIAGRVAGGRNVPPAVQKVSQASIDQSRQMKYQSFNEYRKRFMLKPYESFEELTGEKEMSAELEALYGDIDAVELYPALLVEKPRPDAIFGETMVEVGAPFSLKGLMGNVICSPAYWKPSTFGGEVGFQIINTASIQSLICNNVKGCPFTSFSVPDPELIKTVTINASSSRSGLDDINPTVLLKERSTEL
Description: Newly synthesized compounds were evaluated for their ability to inhibit ovine COX-1 or human COX-2 enzyme by measuring the extent (%) of enzyme activity inhibition at different concentrations (0.001, 0.01, 0.1, 1, 10, 50 μM). […] The assay kit measures the peroxidase component of COXs that is assayed colorimetrically by monitoring the appearance of oxidized N,N,N′,N′-tetramethyl-p-phenylenediamine (TMPD) a λ = 590 nm. […] Stock solutions of test compounds were dissolved in DMSO.

[2] = test system: BV2 microglia cells; assay: ROS production (H2DCFDA) in LPS-treated BV2 microglia; type: cell-based; conditions: 3 μM, LPS 1 μg/mL, 24 h
Source text: Activation of toll-like receptors (TLRs), particularly the TLR4 subtype, is closely associated with the production of reactive oxygen and nitrogen species that contribute to neuronal death in the CNS. In this connection, NADPH oxidase enzymes are the main ones responsible for ROS production induced by NF-κB nuclear translocation. For this reason, we decided to assess the ROS levels of BV2 microglia cells treated with LPS and the effect of our compounds under this toxicity protocol. To this end, the compounds, at different concentrations (3 μM of 3a, 3b, and 3d and 10 μM of 3c) were incubated with 1 μg/mL LPS for 24 h. After this period, ROS production was measured with the fluorescent probe H2DCFDA. Treatment with LPS increased by 1.75-fold the amount of ROS compared with control cells.
Cultures were seeded into flasks containing supplemented medium and kept at 37 °C in a humidified atmosphere of 5% CO2 and 95% air. For assays, BV-2 cells were subcultured in 48-well plates at a seeding density of 1 × 10^5 cells per well. Cells were treated with LPS (Sigma-Aldrich, Madrid, Spain) for 24 or 48 h before confluence in RPMI with 1% FBS.
To measure cellular ROS, we used the molecular probe 2′,7′-dichlorodihydrofluorescein diacetate (H2DCFDA). Glial cells were loaded with 5 µM H2DCFDA as it was previously described (Parada et al., 2015). Fluorescence was measured in a fluorescence microplate reader (FLUOstar Galaxy; BMG Labtech, Offenburg, Germany). Wavelengths of excitation and emission were 485 and 520 nm, respectively. The relative pixel intensity was measured in identical regions with (ImageJ 1.52a software, National Institutes of Health, Bethesda, MD, USA).

[3] = test system: organotypic hippocampal cultures (OHCs); assay: Cell death (propidium iodide uptake, CA1) in organotypic hippocampal cultures treated with LPS; type: cell-based, Sprague-Dawley rats; conditions: LPS 1 μg/mL, 24 h
Description: With these promising data in hand, we selected compound 3b for its study in a more complex preparation. In vivo administration of LPS produces a proinflammatory cascade that causes memory deficits, an increase of inflammatory markers, and impairment of hippocampal glutamatergic transmission, contributing to neuronal death. All of these functional changes have been described to take place mainly in the hippocampus region. Thus, we subjected organotypic hippocampal cultures (OHCs) to LPS (1 μg/mL) to assess the protective effect of COX-1 inhibition. This kind of explant allows us to study the microglia-neuron network in a more complex and physiological model of cerebral insult.
OHCs were conducted on 8–10-day-old Sprague-Dawley rats supplied by the animal facilities of Universidad Autónoma de Madrid (Madrid, Spain). Cultures were prepared according to the methods described by Stoppini et al. with some modifications. […]
Cell death was determined in the CA1 region by staining the OHCs with propidium iodide (PI). Thirty minutes before analyzing fluorescence, slices were incubated with PI (1 µg/mL). Fluorescence was measured in an epifluorescence Olympus BX50WI microscope. […] Fluorescence was measured in each slice using ImageJ.

IC50 [1]: > 50 µM
Compound: Cc1ccc(-c2cc(N)cc(-c3ccccc3)c2)cc1 [Compound 3b, 4-Methyl-5′-amino-m-terphenyl]
ROS production induced by LPS [2]: significantly reverted ROS production almost to basal levels | Cell death (PI uptake in CA1) induced by LPS [3]: reduced cell death induced by LPS almost to basal levels
